# Measured values as given in US8163768B2, “1,4-dihydropyridine-fused heterocycles, process for preparing the same, use and compositions containing them” (Aventis Pharma S.A.., priority 2005, dated 2012).
# Columns and labels:
# [1] = target: T1, Aurora2 (Aurora-A) (Homo sapiens, UniProt O14965); assay: Aurora 2 (Aurora A) kinase radioactivity scintillation assay using nickel chelate Flash plates; assay type: biochemical; details: 10 nM Aurora-A, 500 nM NuMA substrate, 1 μM ATP with [33P] ATP, 10 mM MgCl2, 30 minutes, 37° C.
# T1 construct: Aurora-A: the full length recombinant protein including an N-terminal poly-histidine tail has been expressed in E. coli; poly-histidine (N); made in house; host or cells: E. coli
# T1 sequence (O14965 1-403): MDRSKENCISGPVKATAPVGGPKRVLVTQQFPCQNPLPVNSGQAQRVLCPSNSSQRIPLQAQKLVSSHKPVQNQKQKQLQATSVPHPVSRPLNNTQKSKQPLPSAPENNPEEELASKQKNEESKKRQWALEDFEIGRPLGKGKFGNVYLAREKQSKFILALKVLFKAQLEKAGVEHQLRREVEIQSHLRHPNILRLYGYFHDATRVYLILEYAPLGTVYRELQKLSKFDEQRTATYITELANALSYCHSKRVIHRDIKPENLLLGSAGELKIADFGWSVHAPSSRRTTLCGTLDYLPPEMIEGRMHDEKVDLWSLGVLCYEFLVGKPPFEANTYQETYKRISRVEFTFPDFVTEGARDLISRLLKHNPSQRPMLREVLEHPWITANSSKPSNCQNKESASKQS
# Procedure: (§1) Aurora 1 and 2 (Respectively. Aurora B and A)
# (§2) The inhibitory effect of compounds with respect to the Aurora 1 and 2 kinases is determined with a radioactivity scintillation assay using nickel chelate.
# (§3) The kinase activity of Aurora is measured by the phosphorylation of NuMA-histidine substrate in the presence of radiolabelled ATP ([^33P] ATP) using 96 well Flash plates where the nickel-chelate is linked to the surface of the microplate. The amount of ^33P incorporated to the substrate NuMA is proportional to the aurora activity.
# (§4) The Flash plates used are nickel-chelate 96 well plates (Perkin Elmer, model SMP107).
# (§5) The products to be evaluated are incubated in a 100 μl reaction volume per well in the presence of 10 nM of Aurora-B or Aurora-A, 500 nM of NuMA substrate in the following buffer: 50 mM of NaCl, 5 mM MgCl2, (Aurora-B) or 10 mM MgCl2 (Aurora-A) and 1 mM of DTT at 37° C.
# (§6) 80 μL of enzyme/substrate incubation buffer is distributed in each well, followed by 10 μL of solution of compound to be measured with various concentrations. The reaction is started by adding 1 μM of ATP (final concentration) containing 0.2 μCi of [^33P] ATP (10 μL). After 30 minutes of incubation the reaction is stopped by removal of the reaction mixture and each well is washed twice with 300 μl of buffer Tris/HCl. The radioactivity is measured in each well using a Packard Top count scintillation counter instrument.
# (§7) The enzymatic activity is expressed as counts per minute obtained in 30 minutes after subtraction of the background noise (reaction medium without enzyme). The measurement is expressed as percentage of inhibition of Aurora activity versus the control. To generate IC50 values, compounds of the invention are tested at different concentration and the percentage of inhibition are plotted as function of compound concentration, IC50s are calculated using the Xlfit 4 curve fitting software.
# [2] = target: T2, Aurora1 (Aurora-B) (Homo sapiens, UniProt Q96GD4); assay: Aurora 1 (Aurora B) kinase radioactivity scintillation assay using nickel chelate Flash plates; assay type: biochemical; details: 10 nM Aurora-B (co expressed with C3 fragment of INCEP), 500 nM NuMA substrate, 1 μM ATP with [33P] ATP, 5 mM MgCl2, 30 minutes, 37° C.
# T2 construct: Aurora-B: the full length protein (His tagged in N-terminal) has been co expressed in SF9 cells; poly-histidine (N); made in house; host or cells: SF9 cells
# Procedure: as §1, §2, §3, §4, §5, §6, §7
# T2 sequence (Q96GD4 whole entry, species assumed, the tested form may be a part): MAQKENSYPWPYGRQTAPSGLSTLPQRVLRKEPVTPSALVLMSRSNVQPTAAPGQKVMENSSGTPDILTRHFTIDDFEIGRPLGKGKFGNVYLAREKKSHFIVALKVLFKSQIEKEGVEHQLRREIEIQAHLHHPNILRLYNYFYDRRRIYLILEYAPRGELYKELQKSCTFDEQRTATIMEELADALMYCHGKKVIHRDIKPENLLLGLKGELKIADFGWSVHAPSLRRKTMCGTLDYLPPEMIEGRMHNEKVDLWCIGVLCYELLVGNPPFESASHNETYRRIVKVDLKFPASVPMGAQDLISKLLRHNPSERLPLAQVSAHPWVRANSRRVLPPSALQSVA
# T2 sequence (Q9NQS7 821-918 partner limits assumed, species assumed): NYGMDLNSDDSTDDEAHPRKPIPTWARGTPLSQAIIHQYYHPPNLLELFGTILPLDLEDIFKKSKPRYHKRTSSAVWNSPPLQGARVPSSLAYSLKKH
SMILES,IC50 [1] [nM],IC50 [2] [nM]
"O=C1CC(c2ccco2)CC2=C1C(c1ccc(Sc3nc4ccccc4[nH]3)o1)c1c[nH]nc1N2 (stereo not shown) [Example 34, 4-[5-(1H-Benzimidazol-2-ylsulfanyl)-furan-2-yl]-7-furan-2-yl-2,4,6,7,8,9-hexahydro-pyrazolo[3,4-b]quinolin-5-one; compound with trifluoro-acetic acid]",23,5
"O=C1CC(c2ccc3c(c2)OCO3)CC2=C1C(c1ccc(Sc3nc4ccccc4[nH]3)o1)c1c[nH]nc1N2 (stereo not shown) [Example 35, 7-Benzo[1,3]dioxol-5-yl-4-[5-(1H-benzimidazol-2-ylsulfanyl)-furan-2-yl]-2,4,6,7,8,9-hexahydro-pyrazolo[3,4-b]quinolin-5-one; compound with trifluoro-acetic acid]",19,5
"COc1ccc(C2CC(=O)C3=C(C2)Nc2n[nH]cc2C3c2ccc(Sc3nc4ccccc4[nH]3)o2)cc1OC (stereo not shown) [Example 36, 4-[5-(1H-Benzimidazol-2-ylsulfanyl)-furan-2-yl]-7-(3,4-dimethoxy-phenyl)-2,4,6,7,8,9-hexahydro-pyrazolo[3,4-b]quinolin-5-one; compound with trifluoro-acetic acid]",41,11
"CCCCCC1CC(=O)C2=C(C1)Nc1n[nH]cc1C2c1ccc(Sc2nc3ccccc3[nH]2)o1 (stereo not shown) [Example 37, 4-[5-(1H-Benzimidazol-2-ylsulfanyl)-furan-2-yl]-7-pentyl-2,4,6,7,8,9-hexahydro-pyrazolo[3,4-b]quinolin-5-one; compound with trifluoro-acetic acid]",29,7
"O=C1CC(c2ccccc2F)CC2=C1C(c1ccc(Sc3nc4ccccc4[nH]3)o1)c1c[nH]nc1N2 (stereo not shown) [Example 38, 4-[5-(1H-Benzimidazol-2-ylsulfanyl)-furan-2-yl]-7-(2-fluoro-phenyl)-2,4,6,7,8,9-hexahydro-pyrazolo[3,4-b]quinolin-5-one; compound with trifluoro-acetic acid]",18,7
"COc1ccccc1C1CC(=O)C2=C(C1)Nc1n[nH]cc1C2c1ccc(Sc2nc3ccccc3[nH]2)o1 (stereo not shown) [Example 39, 4-[5-(1H-Benzimidazol-2-ylsulfanyl)-furan-2-yl]-7-(2-methoxy-phenyl)-2,4,6,7,8,9-hexahydro-pyrazolo[3,4-b]quinolin-5-one; compound with trifluoro-acetic acid]",134,38
"O=C1CCCCC2=C1C(c1ccc(Sc3nc4ccccc4[nH]3)o1)c1c[nH]nc1N2 (stereo not shown) [Example 41, 4-[5-(1H-Benzoimidazol-2-ylsulfanyl)-furan-2-yl]-4,6,7,8,9,10-hexahydro-2H-1,2,10-triaza-cyclohepta[f]inden-5-one; compound with trifluoro-acetic acid]",29,10
"O=C1OCC2=C1C(c1ccc(Sc3nc4ccccc4[nH]3)o1)c1c[nH]nc1N2 (stereo not shown) [Example 42, 4-[5-(1H-Benzoimidazol-2-ylsulfanyl)-furan-2-yl]-2,4,7,8-tetrahydro-6-oxa-1,2,8-triaza-s-indacen-5-one; compound with trifluoro-acetic acid]",508,17
"O=C1CN(CC(O)CN2CCCCC2)CC2=C1C(c1ccc(Sc3nc4ccccc4[nH]3)o1)c1c[nH]nc1N2 (stereo not shown) [Example 45, 4-[5-(1H-Benzimidazol-2-ylsulfanyl)-furan-2-yl]-7-(2-hydroxy-3-piperidin-1-yl-propyl)-2,4,6,7,8,9-hexahydro-pyrazolo[3,4-b]-1,7-naphthyridin-5-one; compound with trifluoro-acetic acid]",887,43

# Second part, the molecule after the results:
IC50 [1] [nM],IC50 [2] [nM],SMILES
1940,145,"O=C1CNCC2=C1C(c1ccc(Sc3nc4ccccc4[nH]3)o1)c1c[nH]nc1N2CC(O)CN1CCOCC1 (stereo not shown) [Example 52, 4-[5-(1H-Benzimidazol-2-ylsulfanyl)-furan-2-yl]-9-(2-hydroxy-3-morpholin-4-yl-propyl)-2,4,6,7,8,9-hexahydro-pyrazolo[3,4-b]-1,7-naphthyridin-5-one; compound with trifluoro-acetic acid]"
2220,136,"CN1C2=C(C(=O)CCC2)C(c2ccc(Sc3nc4ccccc4[nH]3)o2)c2c[nH]nc21 (stereo not shown) [Example 59, 4-[5-(1H-Benzimidazol-2-ylsulfanyl)-furan-2-yl]-9-methyl-2,4,6,7,8,9-hexahydro-pyrazolo[3,4-b]quinolin-5-one; compound with trifluoro-acetic acid]"
31,8,"Cc1ccc2[nH]c(Sc3ccc(C4C5=C(CCCC5=O)Nc5n[nH]cc54)o3)nc2c1 (stereo not shown) [Example 70, 4-[5-(5-Methyl-1H-benzimidazol-2-ylsulfanyl)-furan-2-yl]-2,4,6,7,8,9-hexahydro-pyrazolo[3,4-b]quinolin-5-one; compound with trifluoro-acetic acid compound with trifluoro-acetic acid]"
187,15,"Cc1ccc2[nH]c(Sc3ccc(C4C5=C(CNCC5=O)Nc5n[nH]cc54)o3)nc2c1 (stereo not shown) [Example 71, 4-[5-(5-Methyl-1H-benzimidazol-2-ylsulfanyl)-furan-2-yl]-2,4,6,7,8,9-hexahydro-pyrazolo[3,4-b]-1,7-naphthyridin-5-one; compound with trifluoro-acetic acid]"
20,6,"Cc1ccc2[nH]c(Sc3ccc(C4C5=C(CC(C)(C)CC5=O)Nc5n[nH]cc54)o3)nc2c1 (stereo not shown) [Example 72, 7,7-Dimethyl-4-[5-(5-methyl-1H-benzimidazol-2-ylsulfanyl)-furan-2-yl]-2,4,6,7,8,9-hexahydro-pyrazolo[3,4-b]quinolin-5-one]"
35,55,"O=C1CCCC2=C1C(c1ccc(Sc3nc4cc(Cl)ccc4s3)o1)c1c[nH]nc1N2 (stereo not shown) [Example 73, 4-[5-(5-Chloro-benzothiazol-2-ylsulfanyl)-furan-2-yl]-2,4,6,7,8,9-hexahydro-pyrazolo[3,4-b]quinolin-5-one; compound with trifluoro-acetic acid]"
302,521,"O=C1CNCC2=C1C(c1ccc(Sc3nc4cc(Cl)ccc4s3)o1)c1c[nH]nc1N2 (stereo not shown) [Example 74, 4-[5-(5-Chloro-benzothiazol-2-ylsulfanyl)-furan-2-yl]-2,4,6,7,8,9-hexahydro-pyrazolo[3,4-b]-1,7-naphthyridin-5-one; compound with trifluoro-acetic acid]"
73,183,"CC1(C)CC(=O)C2=C(C1)Nc1n[nH]cc1C2c1ccc(Sc2nc3cc(Cl)ccc3s2)o1 (stereo not shown) [Example 75, 4-[5-(5-Chloro-benzothiazol-2-ylsulfanyl)-furan-2-yl]-7,7-dimethyl-2,4,6,7,8,9-hexahydro-pyrazolo[3,4-b]quinolin-5-one]"
46,9,"O=C1CCCC2=C1C(c1ccc(Sc3nc4cc(OC(F)F)ccc4[nH]3)o1)c1c[nH]nc1N2 (stereo not shown) [Example 76, 4-[5-(5-Difluoromethoxy-1H-benzimidazol-2-ylsulfanyl)-furan-2-yl]-2,4,6,7,8,9-hexahydro-pyrazolo[3,4-b]quinolin-5-one; compound with trifluoro-acetic acid]"
2480,473,"COc1ccc2nc(Oc3ccc(C4C5=C(CCCC5=O)Nc5n[nH]cc54)o3)[nH]c2c1 (stereo not shown) [Example 77, 4-[5-(6-Methoxy-1H-benzimidazol-2-yloxy)-furan-2-yl]-2,4,6,7,8,9-hexahydro-pyrazolo[3,4-b]quinolin-5-one; compound with trifluoro-acetic acid]"
331,121,"Cc1c[nH]c(Sc2ccc(C3C4=C(CCCC4=O)Nc4n[nH]cc43)o2)n1 (stereo not shown) [Example 78, 4-[5-(4-methyl-1H-imidazol-2-ylsulfanyl)-furan-2-yl]-2,4,6,7,8,9-hexahydro-pyrazolo[3,4-b]quinolin-5-one; compound with trifluoro-acetic acid]"
